Measured values taken from patent publication US6245758A, “Methods of use for peroxynitrite decomposition catalysts, pharmaceutical compositions therefor” (priority 1996, dated 2001).
Structures can show the parent of a compound that is named as a salt.

Assays:
[1] = Stopped-flow kinetic analysis of catalytic decomposition of peroxynitrite by metal complexes; conditions: pH = 7.4, 22° C.
Description: To screen metal complexes for peroxynitrite decomposition catalytic activity of the present invention, peroxynitrite is prepared and isolated as its sodium salt by the reaction of acidic hydrogen peroxide with sodium nitrite followed by rapid quenching with NaOH as set out by Halfpenny and Robinson, in J. Chem. So., 1952, 928-938. Peroxynitrite has an absorbance maximum at 302 nm with an extinction coefficient of 1670 M^-1 cm^-1. Therefore, it is possible to directly observe the decomposition of peroxynitrite by stop-flow spectrophotometric analysis by monitoring the decomposition of the absorbance at 302 nm. That is, such observation of the decomposition of peroxynitrite at a rate accelerated over the natural decomposition rate with the addition of the metal complex identifies a compound of the present invention.
Kinetic measurements were made on an OLIS Rapid Scanning Stopped-Flow Spectrometer (On-Line Instrument Systems Inc., Bogart, Ga.)) using the OLISRSM-1000 Operating system for data acquisition and manipulation.
Thus, in a typical experiment the natural background decomposition rate of sodium peroxynitrite was determined as follows. A 24 mM stock solution of sodium peroxynitrite in 50 mM NaOH is load into the small volume syringe and 100 mM potassium phosphate pH=7.4 is charged into the large volume syringe of the stopped-flow spectrophotometer. All stopped -flow measurements were made at 22 ° C. Injection of the solutions into the sample compartment results in ~25 fold dilution of the stock sodium peroxynitrite. […] To test for catalytic peroxynitrite decomposition activity, the metal complex was dissolved in 100 mM potassium phosphate buffer pH=7.4 and loaded into the large syringe and the decomposition of peroxynitrite was monitored as described above. The catalytic rate constant (kcat M-1 sec^-1) for the complexes tested was determined by varying the complex concentration and plotting kobs vs [complex] Table 1. The kobs were obtained from averages of three stopped flow analysis at each catalyst concentration.

[2] = test system: carrageenan-induced paw edema; test: Carrageenan-induced paw edema; type: in vivo, rat
Text: Carrageenan-induced paw edema. The effects of peroxynitrite catalysts in vivo were initially tested on the carrageenan-induced paw edema. The choice of using this in vivo model of inflammation was based on the knowledge that 1) the inflammatory response is blocked by NOS inhibitors and 2) by superoxide dismutase (SOD). This indicates the participation of both NO and of O2-. Male Sprague Dawley rats were purchased from Harlan Sprague-Dawley (Indianapolis, Ind.). Male Sprague Dawley rats (175-200 g) received a subplantar injection in the right hind paw of carrageenan (0.1 ml of a 1% suspension in 0.85% saline). Paw volume was measured by a plethysmometer immediately before the injection of carrageenan and then at hourly intervals from 1 to 6 h. Edema was expressed as the increase in paw volume (in ml) measured after carrageenan injection compared to the pre-injection value for individual animals.

RAW 264.7 cells = test: Cell protection assay, Alamar Blue viability after peroxynitrite challenge; type: cell-based, murine; conditions: PN 500 micromolar; RAW cells, FIG. 9 (H2 TMPyP and ZnTMPyP: data not shown)
Description: FIG. 8: Comparison of Ni and Fe Catalyst Protection of RAW Cells from PN(peroxynitrite)-mediated Injury. RAW 264.7 cells were plated at approximately 2×10^5 per well of a 96-well plate. […] Each condition represents the mean of 4 wells ±sem.
FIG. 9: Protection from PN-mediated RAW Cell Injury by Fe Catalysts. Cells were treated with 500 micromolar PN in the presence or the absence of the following catalysts: FeTMPyP, FeTMPS, FeTPPS. Cell viability was monitored as described in the text and figure legends 1, 2 and 3. Values represent the mean of 4 determinations ±sem.
Protocol for Cell Protection Assays using Peroxynitrite Decomposition Catalysts: A cell viability assay was established to rapidly assess the efficacy of peroxynitrite(PN) catalysts in protecting cells from PN25 mediated injury and death. The peroxynitrite challenge consisted of a pulse of synthetic PN added exogenously to cells. In order to better assess the efficacy of PN catalysts in protecting cells from PN-mediated damage, a quantity of peroxynitrite(in 50 mM NaOH) determined to cause maximal injury(100%) was added as an exogenous pulse to each well of cells in the presence or absence of catalyst. The NaOH vehicle was not toxic by itself.
Cells(RAW 264.7 cells or P815 mastocytoma cells; American Type Culture Collection, Rockville, Md.) were plated to confluence on 96-well tissue culture plates. Each well is washed twice with Dulbecco's phosphate buffered saline(DPBS; GIBCO BRL, Grand Island, N.Y.) to remove protein and other serum components which might react with the exogenous peroxynitrite. To each well is then added 200 μl of DPBS. PN is next placed into separate wells at increasing concentrations and cell viability monitored. The dose at which maximal cell death is attained is then utilized for the catalyst protection assessment.
Phosphate-buffered saline (200 uL) containing increasing concentrations of catalyst is next placed into individual wells of cells. The maximal dose of PN is subsequently administered to all wells of cells. After 15 minutes, the medium is removed from each well and the cells are either allowed to recover overnight in Earles minimum essential medium without phenol red and supplemented with 10% fetal bovine serum or alternatively the plate of cells is assayed that day for mitochondrial integrity using the Alamar Blue viability assay(Alamar Biosciences, Inc.; Sacramento, Calif.). In either case, cells are incubated at 37° C. in 5% CO2.
Cell injury is measured as follows. Briefly, 10% Alamar Blue(v/v) in Earles MEM with 10% FBS is added to each well of cells for 1-2h. Cell metabolism of the dye generates a fluorescent product which is directly related to the number of viable cells. Moreover, the production of the fluorescent metabolite is linear for over 2 h. The amount of fluorescent product in 100 μl of conditioned medium from each well of cells is then measured with an IDEXX fluorescent plate reader (gain setting of 1%) at an emission wavelength of 575 nm after exciting at 545 nm. Viability is either given as absolute fluorescent units or as a percent of the value obtained for untreated cells(100%).

[3] = 30 mg/kg i.v., 1 h post carrageenan
[4] = 30 mg/kg i.v., 2 h post carrageenan
[5] = 30 mg/kg i.v., 3 h post carrageenan
[6] = 30 mg/kg i.v., 4 h post carrageenan
[7] = 30 mg/kg i.v., 5 h post carrageenan
[8] = 30 mg/kg i.v., 6 h post carrageenan

Row | Compound | kcat, catalytic rate constant for the decomposition of sodium peroxynitrite [1] | % Inhibition of Paw Edema [2, 3] [%] | % Inhibition of Paw Edema [2, 4] [%] | % Inhibition of Paw Edema [2, 5] [%] | % Inhibition of Paw Edema [2, 6] [%] | % Inhibition of Paw Edema [2, 7] [%] | % Inhibition of Paw Edema [2, 8] [%] | other results
1 | Cc1c(-c2c3nc(c(-c4c(C)c(S(=O)(=O)O)c(C)c(S(=O)(=O)O)c4C)c4ccc([nH]4)c(-c4c(C)c(S(=O)(=O)O)c(C)c(S(=O)(=O)O)c4C)c4nc(c(-c5c(C)c(S(=O)(=O)O)c(C)c(S(=O)(=O)O)c5C)c5ccc2[nH]5)C=C4)C=C3)c(C)c(S(=O)(=O)O)c(C)c1S(=O)(=O)O [Example H2TMPS, 5,10,15,20-tetrakis(3,5-disulfonatedmesityl)porphyrin octasodium salt] | Inactive | 0 | 0 | 0 | 0 | 0 | 0 | inhibition of edema formation ([2]; 30 mg/kg i.v.): failed to inhibit edema formation
2 | COc1cccc(C=NCCN=Cc2cccc(OC)c2[O-])c1[O-].[Cl-].[Fe+3] [Fe(III)(3,3'MeO2 Salen)] | 50000 M⁻¹ s⁻¹ |  |  |  |  |  |  | 
3 | O=C([O-])CC(O)(CC(=O)[O-])C(=O)[O-].[Fe+3] [Fe(III)Citrate, Iron(III)citrate, reference compound] | 15000 M⁻¹ s⁻¹ |  |  |  |  |  |  | 
4 | O=C([O-])CN(CCN(CC(=O)[O-])CC(=O)[O-])CC(=O)[O-].[Fe+3] [Fe(III)EDTA, iron(III)EDTA, reference compound] | 20000 M⁻¹ s⁻¹ |  |  |  |  |  |  | 
5 | CC(=O)[O-].O=S(=O)(O)c1ccc(-c2c3nc(c(-c4ccc(S(=O)(=O)O)cc4)c4ccc([n-]4)c(-c4ccc(S(=O)(=O)O)cc4)c4nc(c(-c5ccc(S(=O)(=O)O)cc5)c5ccc2[n-]5)C=C4)C=C3)cc1.[Fe+3] [Fe(III)TPPS, Acetato-5,10,15,20-tetrakis(4-sulfonatophenyl)porphyrin iron(III)] | 2.06e+06 M⁻¹ s⁻¹ | 0 | 27 | 25 | 30 | 34 | 33 | protection of cells from PN-mediated injury (RAW 264.7 cells): significant protection of cells; % Inhibition of Paw Edema ([2]; 3 mg/kg i.v., 1 h post carrageenan): 0%; % Inhibition of Paw Edema ([2]; 3 mg/kg i.v., 2 h post carrageenan): 29%; % Inhibition of Paw Edema ([2]; 3 mg/kg i.v., 3 h post carrageenan): 20%; % Inhibition of Paw Edema ([2]; 3 mg/kg i.v., 4 h post carrageenan): 20%; % Inhibition of Paw Edema ([2]; 3 mg/kg i.v., 5 h post carrageenan): 19%; % Inhibition of Paw Edema ([2]; 3 mg/kg i.v., 6 h post carrageenan): 5%; % Inhibition of Paw Edema ([2]; 10 mg/kg i.v., 1 h post carrageenan): 0%; % Inhibition of Paw Edema ([2]; 10 mg/kg i.v., 2 h post carrageenan): 17%; % Inhibition of Paw Edema ([2]; 10 mg/kg i.v., 3 h post carrageenan): 20%; % Inhibition of Paw Edema ([2]; 10 mg/kg i.v., 4 h post carrageenan): 23%; % Inhibition of Paw Edema ([2]; 10 mg/kg i.v., 5 h post carrageenan): 19%; % Inhibition of Paw Edema ([2]; 10 mg/kg i.v., 6 h post carrageenan): 20%
6 | [Cl][Fe]([Cl])[Cl] [FeCl3, reference compound] |  |  |  |  |  |  |  | inhibition of edema formation ([2]; 5 mg/kg, n=6): failed to inhibit edema formation
7 | CC(=O)[O-].Cc1c(-c2c3nc(c(-c4c(C)c(S(=O)(=O)[O-])c(C)c(S(=O)(=O)[O-])c4C)c4ccc([n-]4)c(-c4c(C)c(S(=O)(=O)[O-])c(C)c(S(=O)(=O)[O-])c4C)c4nc(c(-c5c(C)c(S(=O)(=O)[O-])c(C)c(S(=O)(=O)[O-])c5C)c5ccc2[n-]5)C=C4)C=C3)c(C)c(S(=O)(=O)[O-])c(C)c1S(=O)(=O)[O-].[Mn+3].[Na+].[Na+].[Na+].[Na+].[Na+].[Na+].[Na+].[Na+] [Mn(III)TMPS, Acetato 5,10,15,20tetrakis(3,5,disulfonatomesityl)porphyrin Manganese(III) octasodium salt] | 29000 M⁻¹ s⁻¹ | 0 | 0 | 0 | 0 | 0 | 0 | 
8 | CC1=NCCCNCCCN=C(C)c2cccc1n2.[Cl-].[Cl-].[Ni+2] [Ni(CR)Cl2, reference compound] | Inactive |  |  |  |  |  |  | 
9 | Cc1c(-c2c3nc(c(-c4c(C)c(S(=O)(=O)[O-])c(C)c(S(=O)(=O)[O-])c4C)c4ccc([n-]4)c(-c4c(C)c(S(=O)(=O)[O-])c(C)c(S(=O)(=O)[O-])c4C)c4nc(c(-c5c(C)c(S(=O)(=O)[O-])c(C)c(S(=O)(=O)[O-])c5C)c5ccc2[n-]5)C=C4)C=C3)c(C)c(S(=O)(=O)[O-])c(C)c1S(=O)(=O)[O-].[Na+].[Na+].[Na+].[Na+].[Na+].[Na+].[Na+].[Na+].[Ni+2] [Ni(II)TMPS, Acetato-5,10,15,20-tetrakis(3,5-disulfonatomesityl)porphyrin Nickel (II) octasodium salt] | 87200 M⁻¹ s⁻¹ |  |  |  |  |  |  | 
10 | CC1=CC(C)=Nc2ccccc2[N-]C(C)=CC(C)=Nc2ccccc2[N-]1.[Ni+2] [Ni(II)[14]12eneN4] | 17000 M⁻¹ s⁻¹ |  |  |  |  |  |  | 
11 | Cc1c(-c2c3nc(c(-c4c(C)c(S(=O)(=O)[O-])c(C)c(S(=O)(=O)[O-])c4C)c4ccc([n-]4)c(-c4c(C)c(S(=O)(=O)[O-])c(C)c(S(=O)(=O)[O-])c4C)c4nc(c(-c5c(C)c(S(=O)(=O)[O-])c(C)c(S(=O)(=O)[O-])c5C)c5ccc2[n-]5)C=C4)C=C3)c(C)c(S(=O)(=O)[O-])c(C)c1S(=O)(=O)[O-].[Na+].[Na+].[Na+].[Na+].[Na+].[Na+].[Na+].[Na+].[Zn+2] [ZnTMPS, reference compound] |  | 0 | 0 | 0 | 0 | 0 | 0 | 
12 | MnTPPS [reference compound] |  |  |  |  |  |  |  | inhibition of edema formation ([2]; 30 mg/kg i.v.): failed to inhibit edema formation
